# Reference: US4863916A, “Substituted 6-hydroxymethyl-carbapenem antibiotics” (Bayer Aktiengesellschaft, priority 1986, dated 1989)
# Tests used:
# Experiment in all cases: Antibacterial action, minimum inhibitory concentration (MIC), agar method on Iso-sensitest agar
# Type in all cases: cell-based
# Staph. 133 = test system: Staph. 133
# Source text: (§1) The agar solution method was used for determining the antibacterial action, an Iso-sensitest agar being used and the minimum inhibitory concentration (MIC) of the sample being expressed in μg/ml of the nutrient medium (Table).
# Staph. 24455 = test system: Staph. 24455
# Source text: as §1
# Staph. E 25185 = test system: Staph. E 25185
# Source text: as §1
smiles,measurement,setting,value
"COC(=O)[C@@H](O)[C@H]1C(=O)N2C(C(=O)O)=C(Sc3ccncc3)C[C@H]12 [Example 14, Sodium (5R,6S)-6-[(1S)-1-hydroxy-1-methoxycarbonyl]methyl-7-oxo-3-(4-pyridinylthio)-1-azabicyclo[3.2.0]hept-2encarboxylate]",MIC,Staph. 133,0.5 µg/mL
same,MIC,Staph. 24455,0.5 µg/mL
same,MIC,Staph. E 25185,1 µg/mL
